Experimental data taken from ChEMBL document CHEMBL5325401, “Computer-aided identification, synthesis, and biological evaluation of DNA polymerase η inhibitors for the treatment of cancer” (Eur J Med Chem, 2023).
≈ marks a conversion by molar mass, not a printed value.

Legend:
DNA polymerase eta [1] = molecular target: T1, DNA polymerase eta (Homo sapiens, UniProt Q9Y253); assay: (§1) Inhibition of C-terminal 6xHis-tagged human DNA polymerase eta (1 to 511 residues) expressed in Escherichia coli BL21 DE3 using 5'-IRD700-GCAGGTCGACTCCAAAG-3' primer/ 5'-TCGGTACCGGGTTAGCCTTTGGAGTCGACCTGC-3' template as DNA substrate incubated for 60 mins in presence of Mg2+ by bromophenol blue staining based assay
T1 sequence (Q9Y253 whole entry): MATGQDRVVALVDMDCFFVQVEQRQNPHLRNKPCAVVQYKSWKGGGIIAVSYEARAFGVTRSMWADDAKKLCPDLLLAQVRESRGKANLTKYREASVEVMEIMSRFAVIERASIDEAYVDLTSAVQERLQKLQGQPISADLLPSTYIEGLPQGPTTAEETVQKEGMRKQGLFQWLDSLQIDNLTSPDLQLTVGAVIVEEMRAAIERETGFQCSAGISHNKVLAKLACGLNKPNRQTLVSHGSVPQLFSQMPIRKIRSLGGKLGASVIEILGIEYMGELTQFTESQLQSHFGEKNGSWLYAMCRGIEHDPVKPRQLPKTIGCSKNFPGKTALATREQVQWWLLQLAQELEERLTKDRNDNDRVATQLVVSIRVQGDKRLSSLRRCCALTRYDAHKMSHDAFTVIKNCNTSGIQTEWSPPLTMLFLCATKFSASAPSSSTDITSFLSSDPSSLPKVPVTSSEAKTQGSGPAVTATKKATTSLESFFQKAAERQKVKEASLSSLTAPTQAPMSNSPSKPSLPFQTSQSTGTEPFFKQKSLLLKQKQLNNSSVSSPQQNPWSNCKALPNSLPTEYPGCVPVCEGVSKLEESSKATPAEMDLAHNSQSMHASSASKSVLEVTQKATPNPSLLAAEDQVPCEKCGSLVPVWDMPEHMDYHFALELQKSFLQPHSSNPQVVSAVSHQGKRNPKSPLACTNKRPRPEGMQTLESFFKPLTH

[2] = Kinetic solubility of compound in neutral buffer at pH 7.4 at 250 uM measured after 24 hrs by UPLC/MS analysis; assay type: physicochemical; settings: read-out: Kinetic_solubility
[3] = Metabolic stability in mouse plasma assessed as half life at 2 uM incubated upto 120 mins by UPLC/MS analysis; assay type: ADME, cell-free
[4] = Metabolic stability in mouse liver microsome assessed as half life at 4.6 uM incubated upto 60 mins by LC/MS-MS analysis; assay type: ADME; settings: liver microsomes
[5] = Inhibition of DNA polymerase (unknown origin); parameters: species or system Homo sapiens
[6] = molecular target: T2, DNA polymerase eta (Homo sapiens) (UniProt Q9Y253); assay: as §1, with “substrate at 100 uM” for “substrate”, “assay relative to control” for “assay”
T2 sequence (whole entry): T1 sequence (Q9Y253 whole entry)

[7] = molecular target: T2, DNA polymerase eta (Homo sapiens); assay: as §1, with “substrate at 1 uM” for “substrate”, “assay relative to control” for “assay”
DNA polymerase eta [8] = molecular target: T1, DNA polymerase eta; assay: Inhibition of 6xHis-tagged human DNA polymerase eta (1 to 437 residues) expressed in Escherichia coli BL21 DE3 assessed as displacement of reporter strand using 5'-TTT TTT TTG C-TAMRA-3' reporter/5'-TCA CCC TCG TAC GAC TCT T-3' primer/5'-BHQ2-GCAAAAAAAAAAGAGTCGTACGAGGGTGA-3' template of 1:1.5:1.5 as DNA substrate preincubated for 5 to 10 mins followed by substrate addition measured immediately in presence of dTTP/MgCl2 by fluorescence based assay
DNA polymerase eta [9] = molecular target: T1, DNA polymerase eta; assay: Inhibition of human DNA polymerase eta (1 to 437 residues) using 5'-TTT TTT TTG C-TAMRA-3' reporter/5'-(FAM-TTT)-GGGGGAAGGATTC-3' primer/5'-TCACGGAATCCTTCCCCC-3' template as DNA substrate preincubated for 5 to 10 mins followed by DNA substrate addition measured immediately in presence of dTTP/MgCl2 by fluorescence based assay

| SMILES | IC50 (DNA polymerase eta [1]) [µM] | further results |
| --- | --- | --- |
| CCCCOc1c(-c2ccc(O)c(O)c2)oc2cc(O)cc(O)c2c1=O | 62.4 | – |
| O=c1c(O)c(-c2ccc(O)c(O)c2)oc2cc(O)cc(O)c12 [QUERCETIN] | 15.8 | solubility kinetic at 24 h, 250 µM [2]: 16 µM (≈ 4.84 µg/mL); half-life at 2 µM [3]: 0.117 h; half-life at 4.6 µM [4]: > 1 h |
| O=c1cc(-c2ccc(O)c(O)c2)oc2cc(F)cc(O)c12 | 13.8 | solubility kinetic at 24 h, 250 µM [2]: < 1 µM; half-life at 2 µM [3]: > 2 h; half-life at 4.6 µM [4]: > 1 h |
| O=c1cc(-c2ccc(O)cc2)oc2cc(O)cc(O)c12 [APIGENIN] | 22.2 | solubility kinetic at 24 h, 250 µM [2]: 13 µM (≈ 3.51 µg/mL); half-life at 2 µM [3]: > 2 h; half-life at 4.6 µM [4]: 0.133 h |
| COc1ccc(-c2cc(=O)c3c(OC)c(OC)c(OC)cc3o2)cc1OC [SINENSETIN] | > 100 | – |
| COc1cccc2oc(-c3ccc(O)cc3C)cc(=O)c12 | 98.3 | – |
| COc1cc(O)c2c(=O)cc(-c3ccc4c(c3)OC(F)(F)O4)oc2c1 | > 100 | – |
| O=C(O)C1=CC(=C(c2ccc(O)c(C(=O)O)c2)c2ccc(O)c(C(=O)O)c2)C=CC1=O [AURINTRICARBOXYLIC ACID] | – | IC50 [5]: 0.4 µM |
| O=C(O)CCc1cc(=O)c2c(O)cc(O)cc2o1 | > 100 | – |
| O=c1cc(-c2ccc(O)c(O)c2)oc2cccc(O)c12 | 8.7 | solubility kinetic at 24 h, 250 µM [2]: 9 µM (≈ 2.43 µg/mL); half-life at 2 µM [3]: > 2 h; half-life at 4.6 µM [4]: > 1 h |
| COc1cccc2oc(-c3ccccc3F)cc(=O)c12 | > 100 | – |
| CCCc1c(-c2ccc(O)c(O)c2)oc2cc(O)cc(O)c2c1=O | 87.1 | – |
| O=c1cc(CCc2ccc(O)c(O)c2)oc2cccc(O)c12 | > 100 | – |
| O=C(Nc1ccc(O)c(O)c1)c1cc(=O)c2c(O)cccc2o1 | 26.5 | – |
| Cc1cc(=O)c2c(CC(=O)CC(O)CC(=O)O)cccc2o1 (racemic) | – | inhibition [6]: 100%; inhibition [7]: 22.8% |
| COc1c(-c2ccc(O)cc2)oc2cc(O)cc(O)c2c1=O [ISOKAEMPFERIDE] | 16.1 | – |
| Cc1c(-c2ccc(O)c(O)c2)oc2cc(O)cc(O)c2c1=O | 84.6 | – |
| O=c1cc(/C=C/c2ccc(O)c(O)c2)oc2cccc(O)c12 | > 100 | – |
| O=c1cc(Cc2ccc(O)c(O)c2)oc2cccc(O)c12 | > 100 | – |

| SMILES | IC50 (DNA polymerase eta [1]) [µM] | further results |
| --- | --- | --- |
| O=c1c(-c2ccc(O)cc2)coc2cc(O)cc(O)c12 [GENISTEIN] | 92.4 | – |
| O=C1NC(=S)NC(=O)C1=Cc1cn(C(=O)c2ccc3ccccc3c2)c2ccc(Cl)cc12 | – | IC50 (DNA polymerase eta [8]): 16 µM |
| O=c1cc(-c2ccc(O)c(O)c2)oc2ccccc12 | 30.5 | – |
| O=C(O)c1cc(-c2cc(=O)c3c(O)cc(O)cc3o2)ccc1O | 7.7 | – |
| O=c1cc(-c2ccc(O)c(O)c2)oc2cc(O)ccc12 | 27 | – |
| O=C1NC(=S)NC(=O)C1=Cc1cn(Cc2ccc3ccccc3c2)c2ccc(Cl)cc12 | – | IC50 (DNA polymerase eta [9]): 8 µM |
| CCOc1c(-c2ccc(O)c(O)c2)oc2cc(O)cc(O)c2c1=O | 33.5 | – |
| COc1cccc2oc(-c3ccccc3C)cc(=O)c12 | > 100 | – |
| O=c1cc(-c2ccc3c(c2)OC(F)(F)O3)oc2cc(O)cc(O)c12 | > 100 | – |
| O=c1cc(-c2ccccc2)oc2cc(O)cc(O)c12 [CHRYSIN] | 14.8 | – |
| COc1cccc2oc(-c3ccccc3C(F)(F)F)cc(=O)c12 | > 100 | – |
| O=c1c(OCCO)c(-c2ccc(O)c(O)c2)oc2cc(O)cc(O)c12 | 87.5 | – |
| CCCCc1c(-c2ccc(O)c(O)c2)oc2cc(O)cc(O)c2c1=O | > 100 | – |
| O=c1cc(-c2cccc(O)c2)oc2cc(O)cc(O)c12 | 5 | solubility kinetic at 24 h, 250 µM [2]: 6 µM (≈ 1.62 µg/mL); half-life at 2 µM [3]: > 2 h; half-life at 4.6 µM [4]: 0.183 h |
| O=c1cc(-c2ccccc2)oc2cc(O)c(O)c(O)c12 [BAICALEIN] | 11.8 | solubility kinetic at 24 h, 250 µM [2]: 12 µM (≈ 3.24 µg/mL); half-life at 2 µM [3]: > 2 h; half-life at 4.6 µM [4]: 0.683 h |
| O=c1cc(-c2ccc(O)c(O)c2)oc2cc(O)cc(O)c12 [LUTEOLIN] | 12.7 | solubility kinetic at 24 h, 250 µM [2]: 21 µM (≈ 6.01 µg/mL); half-life at 2 µM [3]: > 2 h; inhibition [6]: 95%; inhibition [7]: 49.9%; half-life at 4.6 µM [4]: > 1 h |
| O=c1c(O)c(-c2ccc(O)cc2)oc2cc(O)cc(O)c12 [KAEMPFEROL] | 12.7 | – |
| COc1cc(O)cc2oc(-c3ccc(O)c(O)c3)cc(=O)c12 | 10.2 | solubility kinetic at 24 h, 250 µM [2]: 87 µM (≈ 26.1 µg/mL); half-life at 2 µM [3]: > 2 h; half-life at 4.6 µM [4]: > 1 h |
